From US12435031B2, “Compound with broad-spectrum antibacterial activity and its antibacterial composition” (CHINA AGRICULTURAL UNIVERSITY, priority 2023, dated 2025)
In brackets after ≈: the same amount, converted by molar mass. Like-named read-outs stand apart in the source and are kept apart here.

System: Clostridium perfringens
Experiment: microbe, parasite or virus in culture
Assay type: cell-based
Settings: for MIC50 / MIC90 / MIC: Clostridium perfringens
[1] = read-out: MIC value against Clostridium perfringens, strain A3-1 (A-type)
[2] = read-out: MIC value against Clostridium perfringens, strain A3-2 (A-type)
[3] = read-out: MIC value against Clostridium perfringens, strain A57-1 (A-type)
[4] = read-out: MIC value against Clostridium perfringens, strain B4 (B-type)
[5] = read-out: MIC value against Clostridium perfringens, strain B5 (B-type)
[6] = read-out: MIC value against Clostridium perfringens, strain C3 (C-type)
[7] = read-out: MIC value against Clostridium perfringens, strain C8 (C-type)
[8] = read-out: MIC value against Clostridium perfringens, strain C59-1 (C-type)
[9] = read-out: MIC value against Clostridium perfringens, strain D14B (D-type)
[10] = read-out: MIC value against Clostridium perfringens, strain F5-2 (F-type)
[11] = read-out: MIC value against Clostridium perfringens, strain F6-1 (F-type)
[12] = read-out: MIC value against Clostridium perfringens, strain F6-2 (F-type)
[13] = read-out: MIC value against Clostridium perfringens, strain F6-2-1 (F-type)
[14] = read-out: MIC value against Clostridium perfringens, strain F6-2-2 (F-type)
[15] = read-out: MIC value against Clostridium perfringens, strain F7-1 (F-type)
[16] = read-out: MIC value against Clostridium perfringens, strain F8-1 (F-type)
[17] = read-out: MIC value against Clostridium perfringens, strain H12-1 (H-type)
[18] = read-out: MIC value against Clostridium perfringens, strain H12-2 (H-type)
[19] = read-out: MIC value against Clostridium perfringens, strain H13-1 (H-type)
[20] = read-out: MIC value against Clostridium perfringens, strain H14-1 (H-type)
[21] = read-out: MIC value against Clostridium perfringens, strain H14-2 (H-type)
[22] = read-out: MIC value against Clostridium perfringens, strain H14-4 (H-type)
[23] = read-out: MIC value against Clostridium perfringens, strain H15-1 (H-type)
[24] = read-out: MIC value against Clostridium perfringens, strain H15-2 (H-type)
[25] = read-out: MIC value against Clostridium perfringens, strain H15-3 (H-type)
[26] = read-out: MIC value against Clostridium perfringens, strain H16 (H-type)

Structure (SMILES): C[C@H]1c2cccc(O)c2C(=O)C2=C(O)[C@]3(O)C(=O)C(C(N)=O)=C(O)[C@@H](N(C)C)[C@@H]3[C@@H](O)[C@@H]21 [DOX, Doxycycline]
- MIC50: 8 µg/mL (≈ 18 µM)
- MIC90: 16 µg/mL (≈ 36 µM)
- MIC [1]: 8 µg/mL (≈ 18 µM)
- MIC [2]: 8 µg/mL (≈ 18 µM)
- MIC [3]: ≤ 0.25 µg/mL
- MIC [4]: 2 µg/mL (≈ 4.5 µM)
- MIC [5]: 8 µg/mL (≈ 18 µM)
- MIC [6]: 16 µg/mL (≈ 36 µM)
- MIC [7]: ≤ 0.25 µg/mL
- MIC [8]: ≤ 0.25 µg/mL
- MIC [9]: 1 µg/mL (≈ 2.25 µM)
- MIC [10]: 4 µg/mL (≈ 9 µM)
- MIC [11]: 32 µg/mL (≈ 72 µM)
- MIC [12]: 16 µg/mL (≈ 36 µM)
- MIC [13]: 16 µg/mL (≈ 36 µM)
- MIC [14]: 16 µg/mL (≈ 36 µM)
- MIC [15]: 8 µg/mL (≈ 18 µM)
- MIC [16]: 16 µg/mL (≈ 36 µM)
- MIC [17]: 4 µg/mL (≈ 9 µM)
- MIC [18]: 4 µg/mL (≈ 9 µM)
- MIC [19]: 8 µg/mL (≈ 18 µM)
- MIC [20]: 8 µg/mL (≈ 18 µM)
- MIC [21]: 8 µg/mL (≈ 18 µM)
- MIC [22]: 4 µg/mL (≈ 9 µM)
- MIC [23]: 16 µg/mL (≈ 36 µM)
- MIC [24]: 16 µg/mL (≈ 36 µM)
- MIC [25]: 8 µg/mL (≈ 18 µM)
- MIC [26]: 8 µg/mL (≈ 18 µM)

Structure (SMILES): CCC[C@@H]1C[C@@H](C(=O)N[C@@H]([C@H]2O[C@H](SC)[C@H](O)[C@@H](O)[C@H]2O)[C@@H](C)O)N(C)C1 [LIN, Lincomycin]
- MIC50: 8 µg/mL (≈ 19.7 µM)
- MIC90: > 128 µg/mL
- MIC [1]: 1 µg/mL (≈ 2.46 µM)
- MIC [2]: 0.5 µg/mL (≈ 1.23 µM)
- MIC [3]: 2 µg/mL (≈ 4.92 µM)
- MIC [4]: > 128 µg/mL
- MIC [5]: > 128 µg/mL
- MIC [6]: > 128 µg/mL
- MIC [7]: 128 µg/mL (≈ 315 µM)
- MIC [8]: 0.5 µg/mL (≈ 1.23 µM)
- MIC [9]: 64 µg/mL (≈ 157 µM)
- MIC [10]: 128 µg/mL (≈ 315 µM)
- MIC [11]: 32 µg/mL (≈ 78.7 µM)
- MIC [12]: 32 µg/mL (≈ 78.7 µM)
- MIC [13]: 128 µg/mL (≈ 315 µM)
- MIC [14]: 128 µg/mL (≈ 315 µM)
- MIC [15]: > 128 µg/mL
- MIC [16]: > 128 µg/mL
- MIC [17]: 0.5 µg/mL (≈ 1.23 µM)
- MIC [18]: ≤ 0.25 µg/mL
- MIC [19]: 4 µg/mL (≈ 9.84 µM)
- MIC [20]: 8 µg/mL (≈ 19.7 µM)
- MIC [21]: 8 µg/mL (≈ 19.7 µM)
- MIC [22]: 4 µg/mL (≈ 9.84 µM)
- MIC [23]: ≤ 0.25 µg/mL
- MIC [24]: 4 µg/mL (≈ 9.84 µM)
- MIC [25]: 4 µg/mL (≈ 9.84 µM)
- MIC [26]: 4 µg/mL (≈ 9.84 µM)

Structure (SMILES): Cc1c(C(=O)C=Cc2ccccc2)[n+](=O)c2ccccc2n1[O-] [QCT, Quincetone]
- MIC value against Clostridium perfringens (strain A3-1 (A-type)): 0.5 µg/mL (≈ 1.63 µM)
- MIC value against Clostridium perfringens (strain A3-2 (A-type)): ≤0.25 µg/mL
- MIC value against Clostridium perfringens (strain A57-1 (A-type)): ≤0.25 µg/mL
- MIC value against Clostridium perfringens (strain B4 (B-type)): ≤0.25 µg/mL
- MIC value against Clostridium perfringens (strain B5 (B-type)): ≤0.25 µg/mL
- MIC value against Clostridium perfringens (strain C3 (C-type)): 1 µg/mL (≈ 3.26 µM)
- MIC value against Clostridium perfringens (strain C8 (C-type)): ≤0.25 µg/mL
- MIC value against Clostridium perfringens (strain C59-1 (C-type)): ≤0.25 µg/mL
- MIC value against Clostridium perfringens (strain D14B (D-type)): ≤0.25 µg/mL
- MIC value against Clostridium perfringens (strain F5-2 (F-type)): 0.5 µg/mL (≈ 1.63 µM)
- MIC value against Clostridium perfringens (strain F6-1 (F-type)): 4 µg/mL (≈ 13.1 µM)
- MIC value against Clostridium perfringens (strain F6-2 (F-type)): 0.5 µg/mL (≈ 1.63 µM)
- MIC value against Clostridium perfringens (strain F6-2-1 (F-type)): 1 µg/mL (≈ 3.26 µM)
- MIC value against Clostridium perfringens (strain F6-2-2 (F-type)): ≤0.25 µg/mL
- MIC value against Clostridium perfringens (strain F7-1 (F-type)): ≤0.25 µg/mL
- MIC value against Clostridium perfringens (strain F8-1 (F-type)): 0.5 µg/mL (≈ 1.63 µM)
- MIC value against Clostridium perfringens (strain H12-1 (H-type)): ≤0.25 µg/mL
- MIC value against Clostridium perfringens (strain H12-2 (H-type)): ≤0.25 µg/mL
- MIC value against Clostridium perfringens (strain H13-1 (H-type)): ≤0.25 µg/mL
- MIC value against Clostridium perfringens (strain H14-1 (H-type)): ≤0.25 µg/mL
- MIC value against Clostridium perfringens (strain H14-2 (H-type)): 0.5 µg/mL (≈ 1.63 µM)
- MIC value against Clostridium perfringens (strain H14-4 (H-type)): ≤0.25 µg/mL
- MIC value against Clostridium perfringens (strain H15-1 (H-type)): ≤0.25 µg/mL
- MIC value against Clostridium perfringens (strain H15-2 (H-type)): ≤0.25 µg/mL
- MIC value against Clostridium perfringens (strain H15-3 (H-type)): 0.5 µg/mL (≈ 1.63 µM)
- MIC value against Clostridium perfringens (strain H16 (H-type)): ≤0.25 µg/mL
